# According to ChEMBL document CHEMBL4840365, “BMS-813160: A Potent CCR2 and CCR5 Dual Antagonist Selected as a Clinical Candidate” (ACS Med Chem Lett, 2021):
# Experiments:
# [1] = molecular target: C-C chemokine receptor type 2 (Homo sapiens, UniProt P41597); assay: Antagonist activity at CCR2 in human whole blood assessed as inhibition of CCL2-induced CD11b upregulation; assay type: functional, tissue-based
# [2] = molecular target: T1, C-C chemokine receptor type 1 (Homo sapiens, UniProt P32246); assay: Displacement of [125I]MIP-1alpha from CCR1 in human THP-1 cells incubated for 12 hrs by radioligand competition assay; assay type: cell-based
# T1 sequence (P32246 whole entry): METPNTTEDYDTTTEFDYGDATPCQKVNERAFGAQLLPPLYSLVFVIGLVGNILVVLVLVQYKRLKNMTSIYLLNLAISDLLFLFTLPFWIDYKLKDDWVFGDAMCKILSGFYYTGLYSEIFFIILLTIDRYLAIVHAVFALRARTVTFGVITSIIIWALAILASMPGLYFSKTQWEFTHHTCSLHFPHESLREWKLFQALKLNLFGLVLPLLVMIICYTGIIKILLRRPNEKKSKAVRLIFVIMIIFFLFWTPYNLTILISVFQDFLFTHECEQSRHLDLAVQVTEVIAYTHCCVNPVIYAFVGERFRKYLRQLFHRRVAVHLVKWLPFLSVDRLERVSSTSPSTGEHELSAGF
# [3] = molecular target: T2, C-C chemokine receptor type 4 (Homo sapiens, UniProt P51679); assay: Displacement of [125I]chemokine from CCR4 (unknown origin) by gamma counter method
# T2 sequence (P51679 whole entry): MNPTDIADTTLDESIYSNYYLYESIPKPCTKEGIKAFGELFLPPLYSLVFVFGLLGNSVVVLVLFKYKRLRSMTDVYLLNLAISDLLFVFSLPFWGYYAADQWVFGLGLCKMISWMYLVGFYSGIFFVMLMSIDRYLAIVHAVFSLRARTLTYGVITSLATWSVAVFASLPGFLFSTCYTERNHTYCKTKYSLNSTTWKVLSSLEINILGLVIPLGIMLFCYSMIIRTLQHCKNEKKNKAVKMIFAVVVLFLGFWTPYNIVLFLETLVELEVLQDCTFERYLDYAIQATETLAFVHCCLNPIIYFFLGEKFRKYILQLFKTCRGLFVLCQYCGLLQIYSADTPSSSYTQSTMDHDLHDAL
# [4] = molecular target: T3, C-X-C chemokine receptor type 2 (Homo sapiens, UniProt P25025); assay: Displacement of [125I]-interleukin-8 from human CXCR2 expressed in human pEAK rapid cells incubated for 90 mins by microscintillation counting analysis; assay type: cell-based
# T3 sequence (P25025 whole entry): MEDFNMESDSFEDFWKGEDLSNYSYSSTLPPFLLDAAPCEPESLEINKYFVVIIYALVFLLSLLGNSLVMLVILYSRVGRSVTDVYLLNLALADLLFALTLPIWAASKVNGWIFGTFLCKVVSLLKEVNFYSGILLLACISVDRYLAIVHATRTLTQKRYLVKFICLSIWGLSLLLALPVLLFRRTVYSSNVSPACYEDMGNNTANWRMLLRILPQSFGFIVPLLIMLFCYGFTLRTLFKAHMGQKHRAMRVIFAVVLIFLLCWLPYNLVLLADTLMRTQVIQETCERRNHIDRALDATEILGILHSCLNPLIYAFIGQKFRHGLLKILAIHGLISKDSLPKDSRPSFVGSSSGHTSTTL
# [5] = molecular target: C-C chemokine receptor type 2 (Mus musculus, UniProt P51683); assay: Displacement of [125I]-CCL2 from mouse CCR2
# [6] = Stability in human liver microsomes assessed as half life at 0.5 uM measured up to 45 mins in the presence of NADPH by LC-MS/MS analysis; assay type: ADME, Microsome
# [7] = Stability in mouse liver microsomes assessed as half life at 0.5 uM measured up to 45 mins in the presence of NADPH by LC-MS/MS analysis; assay type: ADME, Microsome
# [8] = Stability in rat liver microsomes assessed as half life at 0.5 uM measured up to 45 mins in the presence of NADPH by LC-MS/MS analysis; assay type: ADME, Microsome
# hERG (KCNH2) = hERG (KCNH2) (Homo sapiens, UniProt Q12809); assay: Inhibition of human ERG expressed in HEK293 cells at 30 uM by patch-clamp assay relative to control; assay type: cell-based; settings: HEK293 cells that express hERG
# [9] = Protein binding in human plasma assessed as unbound fraction at 1 uM by equilibrium dialysis method; assay type: ADME, cell-free
# [10] = Protein binding in mouse plasma assessed as unbound fraction at 1 uM by equilibrium dialysis method; assay type: ADME, cell-free
# [11] = Protein binding in rat plasma assessed as unbound fraction at 1 uM by equilibrium dialysis method; assay type: ADME, cell-free
# [12] = Permeability of the compound at pH 5.5 by PAMPA; assay type: ADME; settings: read-out: permeability
# [13] = Clearance in mouse at 2 mg/kg, iv; assay type: ADME, organism-based; settings: in vivo
# [14] = Clearance in rat at 2 mg/kg, iv; assay type: ADME, organism-based; settings: in vivo
# [15] = Clearance in dog at 1 mg/kg, iv; assay type: ADME, organism-based, Canis lupus familiaris; settings: in vivo
# [16] = Clearance in cynomolgus monkey at 1 mg/kg, iv; assay type: ADME, organism-based, Macaca fascicularis; settings: in vivo
# [17] = Oral bioavailability in mouse at 10 mg/kg; assay type: ADME, organism-based; settings: in vivo
# [18] = Oral bioavailability in rat at 10 mg/kg; assay type: ADME, organism-based; settings: in vivo
# [19] = Oral bioavailability in dog at 1 mg/kg; assay type: ADME, organism-based, Canis lupus familiaris; settings: in vivo
# [20] = Oral bioavailability in cynomolgus monkey at 1 mg/kg; assay type: ADME, organism-based, Macaca fascicularis; settings: in vivo
# [21] = AUC (0 to 24 hrs) in mouse at 10 mg/kg, po; assay type: ADME, organism-based; parameters: time < 24 hr, route oral, dose 10 mg/kg; settings: in vivo
# [22] = AUC (0 to 24 hrs) in rat at 10 mg/kg, po; assay type: ADME, organism-based; parameters: time < 24 hr, route oral, dose 10 mg/kg; settings: in vivo
# [23] = AUC (0 to 24 hrs) in dog at 1 mg/kg, po; assay type: ADME, organism-based, Canis lupus familiaris; parameters: time < 24 hr, route oral, dose 1 mg/kg; settings: in vivo
# [24] = AUC (0 to 24 hrs) in cynomolgus monkey at 1 mg/kg, po; assay type: ADME, organism-based, Macaca fascicularis; parameters: time < 24 hr, route oral, dose 1 mg/kg; settings: in vivo
# Mus musculus = assay: Antiinflammatory activity against human CCR2 knock-in thioglycollate-induced peritonitis C57BL/6 mouse model assessed as reduction in inflammatory monocyte and macrophage infiltration in peritoneum administered orally twice daily for 2 days with first dose 1 hr prior to thioglycollate challenge; assay type: functional, organism-based; settings: dose 10-160 mg/kg, time 2.0 day
# Homo sapiens = organism: Homo sapiens; assay: Selectivity ratio of IC50 for displacement of [125I]-CCL2 from CCR2 in human PBMC cells to IC50 for displacement of [125I]-MIP-1beta from CCR5 in human peripheral T cells; assay type: cell-based
# Chain of C-C chemokine receptor type 2 (Mus musculus, UniProt P51683) (P51683 whole entry): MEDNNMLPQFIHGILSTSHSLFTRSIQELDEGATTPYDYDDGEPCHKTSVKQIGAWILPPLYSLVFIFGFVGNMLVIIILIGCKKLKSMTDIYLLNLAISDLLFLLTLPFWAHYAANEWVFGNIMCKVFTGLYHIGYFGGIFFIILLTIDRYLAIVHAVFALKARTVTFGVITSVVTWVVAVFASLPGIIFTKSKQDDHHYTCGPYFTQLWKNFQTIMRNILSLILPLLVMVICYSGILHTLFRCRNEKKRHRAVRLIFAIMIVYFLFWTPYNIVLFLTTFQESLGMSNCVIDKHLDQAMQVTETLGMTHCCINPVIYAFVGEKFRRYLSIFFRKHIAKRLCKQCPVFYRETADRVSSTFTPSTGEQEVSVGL
# Chain of hERG (KCNH2) (Q12809 whole entry): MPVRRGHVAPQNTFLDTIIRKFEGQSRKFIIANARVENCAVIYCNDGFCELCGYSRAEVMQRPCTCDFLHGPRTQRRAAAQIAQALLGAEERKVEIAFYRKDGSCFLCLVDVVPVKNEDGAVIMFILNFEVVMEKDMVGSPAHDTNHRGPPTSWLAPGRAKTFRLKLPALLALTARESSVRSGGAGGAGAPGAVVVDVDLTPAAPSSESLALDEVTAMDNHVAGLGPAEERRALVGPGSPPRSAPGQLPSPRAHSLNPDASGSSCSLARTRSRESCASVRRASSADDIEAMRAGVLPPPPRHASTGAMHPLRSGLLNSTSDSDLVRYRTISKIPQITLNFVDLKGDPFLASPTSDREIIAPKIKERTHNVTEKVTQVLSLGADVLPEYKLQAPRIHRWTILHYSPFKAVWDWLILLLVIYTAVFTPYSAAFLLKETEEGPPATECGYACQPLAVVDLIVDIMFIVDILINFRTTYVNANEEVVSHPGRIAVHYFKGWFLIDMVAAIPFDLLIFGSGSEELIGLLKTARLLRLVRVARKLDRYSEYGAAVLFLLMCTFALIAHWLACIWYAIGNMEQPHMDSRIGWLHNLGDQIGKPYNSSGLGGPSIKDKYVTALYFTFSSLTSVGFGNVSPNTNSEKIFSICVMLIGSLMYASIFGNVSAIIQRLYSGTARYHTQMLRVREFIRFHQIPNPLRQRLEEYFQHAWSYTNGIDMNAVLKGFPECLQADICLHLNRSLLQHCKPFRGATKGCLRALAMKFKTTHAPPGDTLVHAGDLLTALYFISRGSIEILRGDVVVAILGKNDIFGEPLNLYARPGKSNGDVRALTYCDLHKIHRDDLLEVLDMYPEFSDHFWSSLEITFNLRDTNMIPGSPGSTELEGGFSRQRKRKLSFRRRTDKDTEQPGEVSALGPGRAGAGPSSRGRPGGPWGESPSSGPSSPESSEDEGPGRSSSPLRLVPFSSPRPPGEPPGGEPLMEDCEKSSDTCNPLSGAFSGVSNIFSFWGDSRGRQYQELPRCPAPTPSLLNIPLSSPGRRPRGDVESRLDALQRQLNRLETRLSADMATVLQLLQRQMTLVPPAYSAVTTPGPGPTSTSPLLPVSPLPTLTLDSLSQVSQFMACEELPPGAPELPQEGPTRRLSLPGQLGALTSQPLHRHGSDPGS
# Chain of C-C chemokine receptor type 2 (Homo sapiens, UniProt P41597) (P41597 whole entry): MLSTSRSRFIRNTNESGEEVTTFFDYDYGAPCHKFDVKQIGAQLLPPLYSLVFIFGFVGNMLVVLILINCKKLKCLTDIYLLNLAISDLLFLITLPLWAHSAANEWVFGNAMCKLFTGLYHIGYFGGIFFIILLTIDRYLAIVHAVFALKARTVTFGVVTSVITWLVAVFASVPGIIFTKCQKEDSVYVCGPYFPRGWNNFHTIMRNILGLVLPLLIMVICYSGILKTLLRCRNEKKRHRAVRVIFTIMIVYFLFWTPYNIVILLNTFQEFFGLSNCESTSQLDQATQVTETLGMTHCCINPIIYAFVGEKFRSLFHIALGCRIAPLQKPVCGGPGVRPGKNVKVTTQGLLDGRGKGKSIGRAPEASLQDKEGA
smiles,measurement,setting,value
CC(=O)N[C@@H]1C[C@H](NC(C)(C)C)CC[C@@H]1N1CC[C@H](Nc2ncnc3ccc(C(F)(F)F)cc23)C1=O,IC50,[1],2.6 nM
CC(=O)N[C@@H]1C[C@H](NC(C)(C)C)CC[C@@H]1N1CC[C@H](Nc2ncnc3cc(C(C)(C)C)nn23)C1=O [BMS-813160],IC50,[2],> 25000 nM
same,IC50,[3],> 40000 nM
same,IC50,[4],> 40000 nM
same,IC50,[5],45 nM
same,half-life at 0.5 µM,[6],2.43 h
same,half-life at 0.5 µM,[7],> 3.33 h
same,half-life at 0.5 µM,[8],> 3.33 h
same,inhibition at 30 µM,hERG (KCNH2),9%
same,fraction unbound at 1 µM,[9],0.71
same,fraction unbound at 1 µM,[10],0.58
same,fraction unbound at 1 µM,[11],0.69
same,Papp,[12],1.9 ×10⁻⁶ cm/s
same,clearance,[13],85 mL/min/kg
same,clearance,[14],50 mL/min/kg
same,clearance,[15],17 mL/min/kg
same,clearance,[16],16 mL/min/kg
same,bioavailability,[17],100%
same,bioavailability,[18],94%
same,bioavailability,[19],61%
same,bioavailability,[20],63%
same,AUC(0-t) at 24 h,[21],5.41 µM·h
same,AUC(0-t) at 24 h,[22],6.5 µM·h
same,AUC(0-t) at 24 h,[23],1.23 µM·h
same,AUC(0-t) at 24 h,[24],1.3 µM·h
same,Activity,Mus musculus,Dose-Dependent Effect
same,Ratio IC50,Homo sapiens,2
